Here are results for two compounds from BindingDB's records for doi:10.3109/14756366.2011.578393 (Gitam University, 2012).

This experiment has as its target Carbonic anhydrase 2 (Homo sapiens, UniProt P00918). The experiment is described as follows: Enzyme Inhibition Assay. The settings on record: pH 7.4; 25 °C. As for the experimental part:
Saturated CO2 solutions in water at 25°C were used as substrate. Stock solutions of inhibitors were prepared at a concentration of 10 mM (in dimethyl sulphoxidewater 1:1, v/v) and dilutions up to 1 mM done with the assay buffer mentioned above. […] Inhibitor and enzyme solutions were preincubated together for 10 min at room temperature prior to assay, in order to allow for the formation of the E-I complex.

The compound `Cn1c(=O)c2c(ncn2C)n(C)c1=O` came in with an IC50 of 2000 µM.
Then `O=C(/C=C/C=C/c1ccc2c(c1)OCO2)N1CCCCC1` [1-[(2E,4E)-5-(1,3-benzodioxol-5-yl)penta-2,4-dienoyl]piperidine], with 2000 µM.

One may read the IC50 as the concentration at which inhibition is half-maximal. A low value points to inhibition by little substance.
